Legend:
Type in all cases: functional, cell-based
[1] = target: T1, Muscarinic acetylcholine receptor M2 (Homo sapiens, UniProt P08172); assay: Negative allosteric modulation of human muscarinic acetylcholine receptor M2 expressed in CHO cells assessed as inhibition of acetylcholine-induced calcium mobilization incubated for 150 secs prior to acetylcholine induction by Fluo-4 AM staining-based fluorescence assay
T1 sequence (P08172 whole entry): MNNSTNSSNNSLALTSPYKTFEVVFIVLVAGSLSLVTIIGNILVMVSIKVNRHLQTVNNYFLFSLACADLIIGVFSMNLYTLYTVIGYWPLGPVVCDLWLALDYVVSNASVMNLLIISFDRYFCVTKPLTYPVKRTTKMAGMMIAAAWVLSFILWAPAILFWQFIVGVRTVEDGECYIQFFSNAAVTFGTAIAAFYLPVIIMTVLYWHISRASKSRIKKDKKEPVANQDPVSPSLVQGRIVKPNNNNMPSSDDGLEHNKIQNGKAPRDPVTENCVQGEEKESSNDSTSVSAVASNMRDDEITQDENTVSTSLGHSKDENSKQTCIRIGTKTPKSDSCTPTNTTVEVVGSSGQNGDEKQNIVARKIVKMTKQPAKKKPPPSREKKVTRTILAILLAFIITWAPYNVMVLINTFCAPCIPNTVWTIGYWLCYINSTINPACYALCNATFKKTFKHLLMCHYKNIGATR

[2] = target: Muscarinic acetylcholine receptor M3 (Homo sapiens, UniProt P20309); assay: Negative allosteric modulation of human muscarinic acetylcholine receptor M3 expressed in CHO cells assessed as inhibition of acetylcholine-induced calcium mobilization incubated for 150 secs prior to acetylcholine induction by Fluo-4 AM staining-based fluorescence assay
[3] = target: T2, Muscarinic acetylcholine receptor M4 (Homo sapiens, UniProt P08173); assay: Negative allosteric modulation of human muscarinic acetylcholine receptor M4 expressed in CHO cells assessed as inhibition of acetylcholine-induced calcium mobilization incubated for 150 secs prior to acetylcholine induction by Fluo-4 AM staining-based fluorescence assay
T2 sequence (P08173 whole entry): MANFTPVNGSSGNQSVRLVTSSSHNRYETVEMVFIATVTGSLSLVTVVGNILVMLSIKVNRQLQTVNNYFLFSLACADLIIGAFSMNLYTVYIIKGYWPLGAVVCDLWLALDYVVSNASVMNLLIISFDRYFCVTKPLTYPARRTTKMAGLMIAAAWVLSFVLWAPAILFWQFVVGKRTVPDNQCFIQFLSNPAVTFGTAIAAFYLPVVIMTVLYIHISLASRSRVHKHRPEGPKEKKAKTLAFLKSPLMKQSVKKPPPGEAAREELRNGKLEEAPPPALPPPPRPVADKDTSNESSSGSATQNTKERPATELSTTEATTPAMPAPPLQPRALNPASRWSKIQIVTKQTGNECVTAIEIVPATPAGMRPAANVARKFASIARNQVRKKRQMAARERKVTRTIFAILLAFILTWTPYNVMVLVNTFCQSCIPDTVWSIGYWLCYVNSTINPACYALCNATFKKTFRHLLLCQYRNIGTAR

[4] = target: T3, Muscarinic acetylcholine receptor M1 (Rattus norvegicus, UniProt P08482); assay: Negative allosteric modulation of rat muscarinic acetylcholine receptor M1 expressed in CHO cells assessed as inhibition of acetylcholine-induced calcium mobilization incubated for 150 secs prior to acetylcholine induction by Fluo-4 AM staining-based fluorescence assay
T3 sequence (P08482 whole entry): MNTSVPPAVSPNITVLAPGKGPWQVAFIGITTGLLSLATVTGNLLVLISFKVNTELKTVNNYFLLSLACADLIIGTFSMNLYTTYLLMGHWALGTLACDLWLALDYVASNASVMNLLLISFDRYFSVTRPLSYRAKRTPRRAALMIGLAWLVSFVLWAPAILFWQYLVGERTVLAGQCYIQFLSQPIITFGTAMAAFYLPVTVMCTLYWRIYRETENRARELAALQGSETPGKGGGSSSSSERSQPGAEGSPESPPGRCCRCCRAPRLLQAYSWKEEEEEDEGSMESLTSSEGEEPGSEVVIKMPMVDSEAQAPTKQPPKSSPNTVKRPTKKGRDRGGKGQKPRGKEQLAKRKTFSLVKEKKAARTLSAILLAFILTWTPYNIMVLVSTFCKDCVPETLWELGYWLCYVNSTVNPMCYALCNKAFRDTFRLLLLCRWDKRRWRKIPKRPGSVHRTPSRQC

[5] = target: T4, Muscarinic acetylcholine receptor M2 (Rattus norvegicus, UniProt P10980); assay: Negative allosteric modulation of rat muscarinic acetylcholine receptor M2 expressed in CHO cells assessed as inhibition of acetylcholine-induced calcium mobilization incubated for 150 secs prior to acetylcholine induction by Fluo-4 AM staining-based fluorescence assay
T4 sequence (P10980 whole entry): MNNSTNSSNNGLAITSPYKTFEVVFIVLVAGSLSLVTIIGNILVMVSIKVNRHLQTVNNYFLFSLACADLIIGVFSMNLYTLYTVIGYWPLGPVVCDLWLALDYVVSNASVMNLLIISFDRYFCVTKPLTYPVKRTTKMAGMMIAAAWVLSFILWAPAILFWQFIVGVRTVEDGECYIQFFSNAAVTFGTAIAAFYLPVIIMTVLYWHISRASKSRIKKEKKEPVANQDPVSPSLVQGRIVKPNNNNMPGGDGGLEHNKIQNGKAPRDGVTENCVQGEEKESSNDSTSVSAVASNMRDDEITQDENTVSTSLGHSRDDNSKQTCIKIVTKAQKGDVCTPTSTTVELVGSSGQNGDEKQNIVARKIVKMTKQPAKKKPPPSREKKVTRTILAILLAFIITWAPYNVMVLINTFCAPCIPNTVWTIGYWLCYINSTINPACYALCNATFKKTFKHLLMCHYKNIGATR

[6] = target: Muscarinic acetylcholine receptor M3 (Rattus norvegicus, UniProt P08483); assay: Negative allosteric modulation of rat muscarinic acetylcholine receptor M3 expressed in CHO cells assessed as inhibition of acetylcholine-induced calcium mobilization incubated for 150 secs prior to acetylcholine induction by Fluo-4 AM staining-based fluorescence assay
[7] = target: T5, Muscarinic acetylcholine receptor M4 (Rattus norvegicus, UniProt P08485); assay: Negative allosteric modulation of rat muscarinic acetylcholine receptor M4 expressed in CHO cells assessed as inhibition of acetylcholine-induced calcium mobilization incubated for 150 secs prior to acetylcholine induction by Fluo-4 AM staining-based fluorescence assay
T5 sequence (P08485 whole entry): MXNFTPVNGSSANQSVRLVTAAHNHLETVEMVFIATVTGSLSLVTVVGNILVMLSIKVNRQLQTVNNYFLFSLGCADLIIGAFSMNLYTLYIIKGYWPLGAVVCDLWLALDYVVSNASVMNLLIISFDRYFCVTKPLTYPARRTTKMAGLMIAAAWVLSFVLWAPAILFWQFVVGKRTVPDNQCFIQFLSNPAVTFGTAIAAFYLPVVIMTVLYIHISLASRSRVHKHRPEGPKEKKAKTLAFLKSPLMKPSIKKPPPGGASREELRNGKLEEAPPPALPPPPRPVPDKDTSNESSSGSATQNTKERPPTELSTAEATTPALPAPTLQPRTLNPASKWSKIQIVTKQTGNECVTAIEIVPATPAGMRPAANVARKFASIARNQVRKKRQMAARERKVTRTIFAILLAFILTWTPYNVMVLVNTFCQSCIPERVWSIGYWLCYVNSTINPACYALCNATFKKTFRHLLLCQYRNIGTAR

Measured: IC50

Chain of Muscarinic acetylcholine receptor M3 (Rattus norvegicus, UniProt P08483) (P08483 whole entry): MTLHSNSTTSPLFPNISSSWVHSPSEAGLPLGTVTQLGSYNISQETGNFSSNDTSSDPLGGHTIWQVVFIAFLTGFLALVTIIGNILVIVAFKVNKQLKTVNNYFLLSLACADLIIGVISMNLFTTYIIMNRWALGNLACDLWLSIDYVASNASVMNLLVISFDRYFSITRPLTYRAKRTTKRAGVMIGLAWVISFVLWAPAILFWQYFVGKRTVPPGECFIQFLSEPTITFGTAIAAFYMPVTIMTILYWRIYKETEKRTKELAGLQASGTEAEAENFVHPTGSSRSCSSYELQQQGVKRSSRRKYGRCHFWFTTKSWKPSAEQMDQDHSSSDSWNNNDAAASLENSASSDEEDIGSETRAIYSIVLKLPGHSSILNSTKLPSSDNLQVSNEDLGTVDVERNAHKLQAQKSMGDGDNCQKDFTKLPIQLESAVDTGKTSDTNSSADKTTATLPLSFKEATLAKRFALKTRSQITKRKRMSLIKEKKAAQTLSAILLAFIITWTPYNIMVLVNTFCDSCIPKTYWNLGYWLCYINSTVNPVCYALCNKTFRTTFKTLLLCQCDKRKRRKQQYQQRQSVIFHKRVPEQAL
Chain of Muscarinic acetylcholine receptor M3 (Homo sapiens, UniProt P20309) (P20309 whole entry): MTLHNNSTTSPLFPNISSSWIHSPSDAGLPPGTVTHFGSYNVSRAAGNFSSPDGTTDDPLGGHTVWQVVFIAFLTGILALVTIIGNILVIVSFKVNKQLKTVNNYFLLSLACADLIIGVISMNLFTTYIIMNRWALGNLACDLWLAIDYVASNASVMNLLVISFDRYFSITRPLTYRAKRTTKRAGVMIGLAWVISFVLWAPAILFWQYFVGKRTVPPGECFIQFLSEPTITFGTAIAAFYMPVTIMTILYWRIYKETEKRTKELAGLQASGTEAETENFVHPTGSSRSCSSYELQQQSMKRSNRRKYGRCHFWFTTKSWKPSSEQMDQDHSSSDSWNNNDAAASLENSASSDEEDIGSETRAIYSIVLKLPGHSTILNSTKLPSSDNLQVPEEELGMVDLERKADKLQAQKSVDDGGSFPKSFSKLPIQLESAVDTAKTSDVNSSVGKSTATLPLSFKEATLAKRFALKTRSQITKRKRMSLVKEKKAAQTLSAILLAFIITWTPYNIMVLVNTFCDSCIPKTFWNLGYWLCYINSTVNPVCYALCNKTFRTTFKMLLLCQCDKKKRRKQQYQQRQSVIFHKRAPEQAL

O=C(c1ccc(F)c(F)c1)N1CCN2C(=O)c3ccccc3C12c1ccccc1 (centres undefined)
> 30 µM: [1] | [2] | [3] | [4] | [5] | [6] | [7]

O=C(c1ccc(F)c(F)c1)N1CCN2C(=O)c3ccccc3[C@@]12c1ccc(Cl)cc1
> 30 µM: [1] | [2] | [3] | [4] | [5] | [6] | [7]

— ChEMBL document CHEMBL3102750 (J Med Chem, 2013)
